Experimental data from patent publication US20100069458A1, “COMBINATION OF LBH589 WITH OTHER THERAPEUTIC AGENTS FOR TREATING CANCER” (priority 2007, published 2010).
Read-outs that look alike come from different tables or passages of the source.

Tests used:
[1] = system: primary AML cells; assay: Loss of viability, trypan blue uptake; format: cell-based; settings: Homo sapiens
[2] = system: hsp90 chaperone function in CML cells; settings: previous studies, cited from earlier work
[3] = system: primary CML cells; assay: Loss of viability, trypan blue uptake; format: cell-based; settings: Homo sapiens, 48 h
[4] = Loss of viability, trypan blue uptake; format: cell-based; settings: human, Normal CD34+ cells
[5] = system: FLT-3, p-STAT5, AKT, CDK4, hsp70 levels in MV4-11 cells; assay: hsp90 client protein levels; format: cell-based, human; settings: AUY922 alone
[6] = system: K562 cells; assay: Cell cycle status, propidium iodide flow cytometry; format: cell-based, human; settings: for % of cells G0/G1 / % of cells G2/M / % of cells S: K562, 24 hours, mean ± S.E.M.
[7] = system: Bcr-Abl, p-STAT5, p-CrkL, AKT levels in K562 cells; assay: hsp90 client protein levels; format: cell-based, human; settings: 50-100 nM of AUY922
[8] = system: U937 cells; assay: Apoptosis; format: cell-based, human; settings: 20 to 50 nM, dose-dependently
[9] = system: MV4-11 cells; assay: Cell cycle status, propidium iodide flow cytometry; format: cell-based, human; settings: for % of cells G0/G1 / % of cells G2/M / % of cells S: MV4-11, 24 hours, mean ± S.E.M.
[10] = system: K562 cells; assay: Apoptosis; settings: 50-100 nM
Procedure: FIG. 2 Analysis of dose effect relationship for AUY922 and LBH589 for the apoptotic effects after 48 hours of exposure was done according to the median effect of Chou and Talalay.

[11] = system: MV4-11 cells; assay: Apoptosis, annexin V flow cytometry; settings: 20 to 50 nM, dose-dependently, FIG. 1
Procedure: Following this, the percentages of annexin V-positive apoptotic cells were determined by flow cytometry. Values represent the mean±S.E.M. of three experiments.

Compound: Cc1[nH]c2ccccc2c1CCNCc1ccc(/C=C/C(=O)NO)cc1 [LBH589, N-hydroxy-3-[4-[[[2-(2-methyl-1H-indol-3-yl)-ethyl]-amino]methyl]phenyl]-2E-2-propenamide]
- cytotoxicity at 0.05 µM ([1]; 48 h, AML#2, 50 nmol/L LBH589, read-out: % non-viable cells): 54.7%
- cytotoxicity at 0.05 µM ([1]; 48 h, AML#4, 50 nmol/L LBH589, read-out: % non-viable cells): 53.8%
- cytotoxicity at 0.05 µM ([1]; 48 h, AML#5, 50 nmol/L LBH589, read-out: % non-viable cells): 61.8%
- cytotoxicity at 0.05 µM ([1]; 48 h, AML#6, 50 nmol/L LBH589, read-out: % non-viable cells): 17.8%
- cytotoxicity at 0.05 µM ([1]; 48 h, AML#7 CD34 enriched, 50 nmol/L LBH589, read-out: % non-viable cells): 56.7%
- cytotoxicity at 0.05 µM ([1]; AML1, 48 h, AML#1, 50 nmol/L LBH589, read-out: % non-viable cells): 80.7%
- cytotoxicity at 0.05 µM ([1]; AML3, 48 h, AML#3, 50 nmol/L LBH589, read-out: % non-viable cells): 46.3%
- client protein levels ([2]; CML cells): depletion of unmutated or mutant forms of Bcr-Abl, as well as of c-Raf and AKT
- hsp90 acetylation and chaperone function ([2]; by inhibiting HDAC 6): induces acetylation and inhibition of hsp90 chaperone function
- cytotoxicity at 0.05 µM ([3]; CML#1, 50 nmol/L LBH589, read-out: % non-viable cells): 43.3%
- cytotoxicity at 0.05 µM ([3]; CML#2, 50 nmol/L LBH589, read-out: % non-viable cells): 21.4%
- cytotoxicity at 0.05 µM ([3]; CML#3, 50 nmol/L LBH589, read-out: % non-viable cells): 47.8%
- cytotoxicity at 0.05 µM ([3]; CML#4, 50 nmol/L LBH589, read-out: % non-viable cells): 37.6%
- cytotoxicity at 48 h, 50 nmol/L ([4]; 50 nmol/L LBH589, read-out: % non-viable cells): 23.3%

Compound: CCNC(=O)c1noc(-c2cc(C(C)C)c(O)cc2O)c1-c1ccc(CN2CCOCC2)cc1 [AUY922, 5-(2,4-Dihydroxy-5-isopropyl-phenyl)-4-(4-morpholin-4-ylmethyl-phenyl)-isoxazole-3-carboxylic acid ethylamide]
- cytotoxicity at 0.02 µM ([1]; 48 h, AML#2, 20 nmol/L AUY922, read-out: % non-viable cells): 54%
- cytotoxicity at 0.05 µM ([1]; 48 h, AML#2, 50 nmol/L AUY922, read-out: % non-viable cells): 58.9%
- cytotoxicity at 0.02 µM ([1]; 48 h, AML#4, 20 nmol/L AUY922, read-out: % non-viable cells): 43.2%
- cytotoxicity at 0.05 µM ([1]; 48 h, AML#4, 50 nmol/L AUY922, read-out: % non-viable cells): 50%
- cytotoxicity at 0.02 µM ([1]; 48 h, AML#5, 20 nmol/L AUY922, read-out: % non-viable cells): 32.1%
- cytotoxicity at 0.05 µM ([1]; 48 h, AML#5, 50 nmol/L AUY922, read-out: % non-viable cells): 27.7%
- cytotoxicity at 0.02 µM ([1]; 48 h, AML#6, 20 nmol/L AUY922, read-out: % non-viable cells): 11.9%
- cytotoxicity at 0.05 µM ([1]; 48 h, AML#6, 50 nmol/L AUY922, read-out: % non-viable cells): 21.4%
- cytotoxicity at 0.02 µM ([1]; 48 h, AML#7 CD34 enriched, 20 nmol/L AUY922, read-out: % non-viable cells): 70.1%
- cytotoxicity at 0.05 µM ([1]; 48 h, AML#7 CD34 enriched, 50 nmol/L AUY922, read-out: % non-viable cells): 70.9%
- cytotoxicity at 0.02 µM ([1]; AML1, 48 h, AML#1, 20 nmol/L AUY922, read-out: % non-viable cells): 38.8%
- cytotoxicity at 0.05 µM ([1]; AML1, 48 h, AML#1, 50 nmol/L AUY922, read-out: % non-viable cells): 45.1%
- cytotoxicity at 0.02 µM ([1]; AML3, 48 h, AML#3, 20 nmol/L AUY922, read-out: % non-viable cells): 40.1%
- cytotoxicity at 0.05 µM ([1]; AML3, 48 h, AML#3, 50 nmol/L AUY922, read-out: % non-viable cells): 42.7%
- cytotoxicity at 0.02 µM ([3]; CML#1, 20 nmol/L AUY922, read-out: % non-viable cells): 29.1%
- cytotoxicity at 0.05 µM ([3]; CML#1, 50 nmol/L AUY922, read-out: % non-viable cells): 33.6%
- cytotoxicity at 0.02 µM ([3]; CML#2, 20 nmol/L AUY922, read-out: % non-viable cells): 9.6%
- cytotoxicity at 0.05 µM ([3]; CML#2, 50 nmol/L AUY922, read-out: % non-viable cells): 13.9%
- cytotoxicity at 0.02 µM ([3]; CML#3, 20 nmol/L AUY922, read-out: % non-viable cells): 21.1%
- cytotoxicity at 0.05 µM ([3]; CML#3, 50 nmol/L AUY922, read-out: % non-viable cells): 25.3%
- cytotoxicity at 0.02 µM ([3]; CML#4, 20 nmol/L AUY922, read-out: % non-viable cells): 30.5%
- cytotoxicity at 0.05 µM ([3]; CML#4, 50 nmol/L AUY922, read-out: % non-viable cells): 32.8%
- client protein levels [5]: depletion of FLT-3, p-STAT5, AKT, and CDK4 levels
- hsp70 levels [5]: induction of hsp70 levels
- cytotoxicity at 48 h, 20 nmol/L ([4]; 20 nmol/L AUY922, read-out: % non-viable cells): 30.8%
- cytotoxicity at 48 h, 50 nmol/L ([4]; 50 nmol/L AUY922, read-out: % non-viable cells): 31.6%
- % of cells G0/G1 ([6]; 20 nM): 31.04 ± 3.11%
- % of cells G2/M ([6]; 20 nM): 8.54 ± 1.16%
- % of cells S ([6]; 20 nM): 60.41 ± 2.01%
- % of cells G0/G1 ([6]; 50 nM): 61.42 ± 5.30%
- % of cells G2/M ([6]; 50 nM): 4.43 ± 2.78%
- % of cells S ([6]; 50 nM): 34.14 ± 5.01%
- % of cells G0/G1 ([6]; 100 nM): 58.30 ± 2.87%
- % of cells G2/M ([6]; 100 nM): 21.73 ± 2.67%
- % of cells S ([6]; 100 nM): 19.97 ± 0.31%
- % of cells G0/G1 ([6]; 250 nM): 58.10 ± 4.47%
- % of cells G2/M ([6]; 250 nM): 21.38 ± 3.07%
- % of cells S ([6]; 250 nM): 20.47 ± 1.54%
- accumulation in G1 and G2/M phases, decline in S phase ([6]; K562 cells): dose-dependently induced accumulation
- client protein levels [7]: depleted Bcr-Abl, p-STAT, p-CrkL and AKT levels
- induced apoptosis, % of cells [8]: 40-60%
- % of cells G0/G1 ([9]; 5 nM): 62.23 ± 0.33%
- % of cells G2/M ([9]; 5 nM): 6.02 ± 0.74%
- % of cells S ([9]; 5 nM): 31.74 ± 0.42%
- % of cells G0/G1 ([9]; 10 nM): 63.54 ± 1.20%
- % of cells G2/M ([9]; 10 nM): 6.30 ± 0.92%
- % of cells S ([9]; 10 nM): 30.16 ± 0.39%
- % of cells G0/G1 ([9]; 20 nM): 85.71 ± 2.14%
- % of cells G2/M ([9]; 20 nM): 5.30 ± 0.71%
- % of cells S ([9]; 20 nM): 8.98 ± 2.41%
- % of cells G0/G1 ([9]; 50 nM): 79.57 ± 1.15%
- % of cells G2/M ([9]; 50 nM): 11.96 ± 1.26%
- % of cells S ([9]; 50 nM): 8.47 ± 2.30%
- accumulation in G1 and G2/M phases, decline in S phase ([9]; MV4-11 cells): dose-dependently induced accumulation
- induced apoptosis, % of cells [10]: 30-50%
- induced apoptosis, % of cells [11]: 40-60%
